Laboratory results reported in publication PMC8399196, “Synthesis, Characterization, and Anticancer Activity of Benzothiazole Aniline Derivatives and Their Platinum (II) Complexes as New Chemotherapy Agents” (Pharmaceuticals, 2021).
Entries after “also recorded” stand apart in the source; their conditions may differ.

What was measured:
Caki-2 cells = experiment: CCK-8 cell viability assay, Caki-2; type: cell-based; conditions: Caki-2 human renal cancer cells, CCK-8, 24 h, mean ± SEM, n = 3
Method: (§1) Human colorectal adenocarcinoma cells (HT-29, ATCC® HTB-38), adenocarcinomic human alveolar basal epithelial cells (A549, ATCC® CCL-185), and prostate cancer (PC-3, ATCC® CRL-1435) were cultured in the growth medium, containing Roswell Park Memorial Institute Medium (RPMI1640) WelGENE, Daegu, Korea supplemented with 10% (v/v) fetal bovine serum (FBS, Gibco, Grand Island, NY, USA) and 1% antibiotics-antimycotics (Gibco). Human breast adenocarcinoma cells (MCF-7, ATCC® HTB-22™), hepatocellular carcinoma (HepG2, ATCC® HB-8065™), Rattus brain glioma (C6, ATCC ® CRL-2303™), and human renal carcinoma (Caki-2, ATCC® HTB-47™) cells were cultured in Dulbecco’s modified Eagle’s medium (DMEM, WelGENE, Daegu, Korea) supplemented with 10% (v/v) FBS (Gibco) and 1% antibiotics-antimycotics (Gibco). Mouse brain neural (NE-4C, ATCC® CRL-2925™) and human cervix adenocarcinoma cells (HeLa, ATCC® CCL-2™) were cultured in Eagle’s minimum essential medium (EMEM, ATCC® 30-2003™) supplemented with 10% FBS (Gibco) and 1% antibiotics-antimycotics (Gibco). Mouse liver normal cells (AML12, ATCC® CRL-2254™) were cultured in DMEM/F-12 (WelGENE) supplemented with 10% FBS (Gibco), 1 × ITS (10 μg/mL insulin, 5.5 μg/mL transferrin, 6.7 ng/mL selenium, Gibco), […] 1% antibiotics-antimycotics (Gibco). Human breast epithelial cells (MCF 10A, ATCC® CRL-10317™) were cultured in DMEM/F-12 (WelGENE) supplemented with 5% horse serum (Gibco), 20 ng/mL epidermal growth factor (EGF, Peprotech Inc., Rocky Hill, NJ, USA), […] (Sigma-Aldrich, St. Louis, MO, USA), 100 ng/mL colera toxin (Sigma-Aldrich), 10 μg/mL insulin (Sigma-Aldrich) and 1% antibiotics- (Gibco). Human colon normal epithelial cells (FHC, ATCC® CRL-18317™) were cultured in DMEM/F-12 (WelGENE) supplemented with 10% FBS (Gibco), 10 ng/mL cholera toxin (Sigma-Aldrich), 20 ng/mL EGF (Peprotech Inc.), 100 μg/mL hydrocortisone (Sigma-Aldrich), 1 × ITS (10 μg/mL insulin, 5.5 μg/mL transferrin, 6.7 ng/mL selenium, Gibco) and 1% antibiotics-antimycotics (with 100 units penicillin, 100 μg streptomycin and 250 ng amphotericin B per mL, Gibco). Cells were incubated in a humidified 5% CO2 atmosphere at 37 °C.
(§2) To evaluate cytotoxicity, cells were seeded in a 96-well plate (FHC, 0.5 × 10^4 cells/well; Caki-2 and MCF 10A, 1 × 10^4 cells/well; AML12, 1.2 × 10^4 cells/well; HeLa, HEK-293, A549, and PC-3, 1.5 × 10^4 cells/well; HT-29, MCF-7, C6, HepG2, and NE-4C, 2 × 10^4 cells/well). […] In addition, cell counting kit-8 (CCK-8, Dojindo Laboratories, Kumamoto, Japan) solution was added to each well, and the plate was incubated for 2 h. The absorbance was then measured at 450 nm using a microplate reader (SpectraMax i3, Molecular Devices, San Jose, CA, USA). The IC50 and logIC50 values were calculated in GraphPad Prism (GraphPad Prism Software Inc. Version 5.02, San Diego, CA, USA). All experiments were performed, independently, three times. The graph of logIC50 values represents the average value.

NE-4C cells = experiment: CCK-8 cell viability assay, NE-4C normal cells; type: cell-based; conditions: NE-4C mouse brain neural stem cells, CCK-8, 24 h, mean ± SEM, n = 3
Method: as §1, §2

C6 cells = experiment: CCK-8 cell viability assay, C6; type: cell-based, Rattus; conditions: C6 brain glioma cells, CCK-8, 24 h, mean ± SEM, n = 3
Method: as §1, §2

MCF-10A cells = experiment: CCK-8 cell viability assay, MCF-10A normal cells; type: cell-based; conditions: MCF-10A normal human breast epithelial cells, CCK-8, 24 h, mean ± SEM, n = 3
Method: as §1, §2

PC-3 cells = experiment: CCK-8 cell viability assay, PC-3; type: cell-based; conditions: PC-3 human prostate cancer cells, CCK-8, 24 h, mean ± SEM, n = 3
Method: as §1, §2

HeLa cells = experiment: CCK-8 cell viability assay, HeLa; type: cell-based; conditions: HeLa human cervical cancer cells, CCK-8, 24 h, mean ± SEM, n = 3
Method: as §1, §2

HT-29 cells = experiment: CCK-8 cell viability assay, HT-29; type: cell-based; conditions: HT-29 human colon cancer cells, CCK-8, 24 h, mean ± SEM, n = 3
Method: as §1, §2

HEK-293 cells = experiment: CCK-8 cell viability assay, HEK-293 normal cells; type: cell-based; conditions: HEK-293 human embryonic kidney cells, CCK-8, 24 h, mean ± SEM, n = 3
Method: as §2

MCF-7 cells = experiment: CCK-8 cell viability assay, MCF-7; type: cell-based; conditions: MCF-7 human breast cancer cells, CCK-8, 24 h, mean ± SEM, n = 3
Method: as §1, §2

HepG2 cells = experiment: CCK-8 cell viability assay, HepG2; type: cell-based; conditions: HepG2 human hepatic carcinoma cells, CCK-8, 24 h, mean ± SEM, n = 3
Method: as §1, §2

A549 cells = experiment: CCK-8 cell viability assay, A549; type: cell-based; conditions: A549 human lung cancer cells, CCK-8, 24 h, mean ± SEM, n = 3
Method: as §1, §2

AML12 cells = experiment: CCK-8 cell viability assay, AML12 normal cells; type: cell-based; conditions: AML12 normal mouse liver hepatocyte cells, CCK-8, 24 h, mean ± SEM, n = 3
Method: as §1, §2

FHC cells = experiment: CCK-8 cell viability assay, FHC normal cells; type: cell-based; conditions: FHC normal human colon epithelial cells, CCK-8, 24 h, mean ± SEM, n = 3
Method: as §1, §2

[1] = Stability in buffered aqueous solution by UV-Vis spectroscopy; type: physicochemical; conditions: for Stability, time-dependent UV-Vis spectrum: 1 mM in PBS (L1Pt: 2% DMSO in PBS), physiological pH 7.4, t = 0, 7, 24 h, 200-450 nm; for Stability, time-dependent UV-Vis spectrum at other pH-values: 1 mM in PBS, acidic (pH 2), weakly acidic (pH 5), alkaline (pH 12), t = 0, 7, 24 h
Method: An indispensable feature of any promising anticancer agent is its thermodynamic stability in aqueous media. All prospective agents should be able to reach their target under the conditions encountered in living organisms. Therefore, the stability of the compounds was measured at 1 mM in phosphate-buffered saline (PBS) solution using UV–Vis spectroscopy. […] The stability of the metal complexes is often dependent on the pH value and the pH 4.5–5.0 is crucial since endosomal uptake of the complexes by lysosomes can occur.

[2] = Solubility in water / aqueous media; type: physicochemical

Structure (SMILES) | IC50 (Caki-2 cells) [µM] | IC50 (NE-4C cells; Neural stem cell) [µM] | IC50 (C6 cells; Rattus norvegicus) [µM] | IC50 (MCF-10A cells) [µM] | IC50 (PC-3 cells) [µM] | IC50 (HeLa cells) [µM] | IC50 (HT-29 cells) [µM] | IC50 (HEK-293 cells; HEK293) [µM] | IC50 (MCF-7 cells; MCF7) [µM] | IC50 (HepG2 cells) [µM] | IC50 (A549 cells) [µM] | IC50 (AML12 cells) [µM] | IC50 (FHC cells) [µM] | IC50 (NE-4C cells) [µM] | IC50 (C6 cells) [µM] | IC50 (HEK-293 cells) [µM] | IC50 (MCF-7 cells) [µM] | other results
Nc1ccc(-c2nc3ccccc3s2)cc1 [BTA, 2-(4-aminophenyl)-benzothiazole, reference compound] | 463 ± 44.1 | 60.9 ± 2.9 | 425 ± 47.7 | 401 ± 136 | 182 ± 7.8 | 76.4 ± 23.4 | 275 ± 5 | > 500 | 104 ± 28.6 | 52 ± 5.7 | > 500 | > 500 | > 500 | – | – | – | – | –
N.N.[Cl][Pt][Cl] [Cisplatin, cis-diamminedichloroplatinum-(II), reference compound] | > 500 | – | – | 95.9 ± 6.7 | > 500 | 26.2 ± 5.6 | 39.1 ± 0.6 | – | – | 54.2 ± 31.8 | > 500 | 32.1 ± 4.4 | > 500 | 9 ± 0.3 | 227 ± 34.3 | 65.5 ± 4.1 | 204 ± 27.3 | IC50 (AML12 cells; listed as cisplatin): 32 µM
NCC(N)C(=O)Nc1ccc(-c2nc3ccccc3s2)cc1 (stereo not drawn) [Compound L1, 2,3-Diamino-N-(4-benzothiazol-2-yl-phenyl)-propionamide] | 75.6 ± 3.4 | 36.8 ± 3.7 | 77.8 ± 9.7 | 65.1 ± 1.9 | 94.9 ± 0.8 | 41.9 ± 3.4 | 29.9 ± 0.3 | 68.1 ± 2.8 | 65.9 ± 12.3 | 5.9 ± 0.5 | 100 ± 8.4 | 138 ± 24.1 | 72.7 ± 2 | – | – | – | – | Stability, time-dependent UV-Vis spectrum [1]: did not display any significant changes throughout 24 h; Stability, time-dependent UV-Vis spectrum at other pH-values [1]: no obvious changes in the absorptions peak; Solubility in water / aqueous media [2]: soluble in water
O=C(Nc1ccc(-c2nc3ccccc3s2)cc1)C1C[NH2+][Pt-2]([Cl])([Cl])[NH2+]1 (stereo not drawn) [Compound L1Pt] | 106 ± 8.5 | – | – | 46.9 ± 5.1 | 55.7 ± 7.5 | 64.7 ± 0.3 | 42.6 ± 5.6 | – | – | 7.5 ± 0.1 | 167 ± 11.2 | 139 ± 0.8 | 64.3 ± 2.4 | 25.7 ± 1.7 | 93.3 ± 22.7 | 54.9 ± 2.8 | 59 ± 11 | Stability, time-dependent UV-Vis spectrum [1]: did not display any significant changes throughout 24 h; also recorded: remains stable over 24 h; Stability, time-dependent UV-Vis spectrum at other pH-values [1]: no obvious changes in the absorptions peak; Solubility in water / aqueous media [2]: poor solubility in aqueous media
O=C(Nc1ccc(-c2nc3ccccc3s2)cc1)C(C/N=C/c1ccccc1O)/N=C/c1ccccc1O (stereo not drawn) [Compound L2, N-(4-Benzothiazol-2-yl-phenyl)-2,3-bis-[(2-hydroxy-benzylidene)amino] propionamide] | 159 ± 4.3 | 28.2 ± 0.1 | 143 ± 32.7 | 79.3 ± 25.4 | 116 ± 5 | 47 ± 6 | 135 ± 4.4 | 139 ± 20.1 | 98.1 ± 7.9 | 14.2 ± 7 | 182.4 ± 0.8 | > 500 | 189 ± 10.3 | – | – | – | – | –
O=C(Nc1ccc(-c2nc3ccccc3s2)cc1)C1C[N+]2=Cc3ccccc3[O][Pt-2]23[O]c2ccccc2C=[N+]13 (stereo not drawn) [Compound L2Pt] | > 500 | – | – | > 500 | > 500 | 221 ± 15.8 | 173 ± 3.2 | – | – | 31.6 ± 3.6 | > 500 | > 500 | > 500 | 47 ± 4.1 | > 500 | 212 ± 14.9 | > 500 | –
O=C(Nc1ccc(-c2nc3ccccc3s2)cc1)C1CNC(c2ccccn2)=N1 (stereo not drawn) [Compound L3, 2-Pyridin-2-yl-4,5-dihydro-1H-imidazole-4-carboxylic acid (4-benzothiazol-2-yl-phenyl)amide] | > 500 | 22.4 ± 2.4 | 142 ± 15.3 | > 500 | 130 ± 34.7 | 98.9 ± 3.5 | 70.5 ± 0.2 | > 500 | 190 ± 16.5 | > 500 | > 500 | > 500 | > 500 | – | – | – | – | –
O=C(Nc1ccc(-c2nc3ccccc3s2)cc1)C1CNC2=[N+]1[Pt-2]([Cl])([Cl])[n+]1ccccc12 (stereo not drawn) [Compound L3Pt] | > 500 | – | – | > 500 | > 500 | > 500 | > 500 | – | – | > 500 | > 500 | > 500 | > 500 | 32.4 ± 6 | > 500 | 206 ± 7.4 | > 500 | –
